The experiment deals with PpsB (6x His-PpsB) (Mycobacterium tuberculosis, UniProt P9WQE5). The experiment can be described thus: biochemical.

This is an account of results in paper PMC13600695, “Identifying a novel mechanism of L-leucine uptake in Mycobacterium tuberculosis using a chemical genomic approach” (eLife, 2026).

Chain of PpsB (6x His-PpsB) (P9WQE5 whole entry): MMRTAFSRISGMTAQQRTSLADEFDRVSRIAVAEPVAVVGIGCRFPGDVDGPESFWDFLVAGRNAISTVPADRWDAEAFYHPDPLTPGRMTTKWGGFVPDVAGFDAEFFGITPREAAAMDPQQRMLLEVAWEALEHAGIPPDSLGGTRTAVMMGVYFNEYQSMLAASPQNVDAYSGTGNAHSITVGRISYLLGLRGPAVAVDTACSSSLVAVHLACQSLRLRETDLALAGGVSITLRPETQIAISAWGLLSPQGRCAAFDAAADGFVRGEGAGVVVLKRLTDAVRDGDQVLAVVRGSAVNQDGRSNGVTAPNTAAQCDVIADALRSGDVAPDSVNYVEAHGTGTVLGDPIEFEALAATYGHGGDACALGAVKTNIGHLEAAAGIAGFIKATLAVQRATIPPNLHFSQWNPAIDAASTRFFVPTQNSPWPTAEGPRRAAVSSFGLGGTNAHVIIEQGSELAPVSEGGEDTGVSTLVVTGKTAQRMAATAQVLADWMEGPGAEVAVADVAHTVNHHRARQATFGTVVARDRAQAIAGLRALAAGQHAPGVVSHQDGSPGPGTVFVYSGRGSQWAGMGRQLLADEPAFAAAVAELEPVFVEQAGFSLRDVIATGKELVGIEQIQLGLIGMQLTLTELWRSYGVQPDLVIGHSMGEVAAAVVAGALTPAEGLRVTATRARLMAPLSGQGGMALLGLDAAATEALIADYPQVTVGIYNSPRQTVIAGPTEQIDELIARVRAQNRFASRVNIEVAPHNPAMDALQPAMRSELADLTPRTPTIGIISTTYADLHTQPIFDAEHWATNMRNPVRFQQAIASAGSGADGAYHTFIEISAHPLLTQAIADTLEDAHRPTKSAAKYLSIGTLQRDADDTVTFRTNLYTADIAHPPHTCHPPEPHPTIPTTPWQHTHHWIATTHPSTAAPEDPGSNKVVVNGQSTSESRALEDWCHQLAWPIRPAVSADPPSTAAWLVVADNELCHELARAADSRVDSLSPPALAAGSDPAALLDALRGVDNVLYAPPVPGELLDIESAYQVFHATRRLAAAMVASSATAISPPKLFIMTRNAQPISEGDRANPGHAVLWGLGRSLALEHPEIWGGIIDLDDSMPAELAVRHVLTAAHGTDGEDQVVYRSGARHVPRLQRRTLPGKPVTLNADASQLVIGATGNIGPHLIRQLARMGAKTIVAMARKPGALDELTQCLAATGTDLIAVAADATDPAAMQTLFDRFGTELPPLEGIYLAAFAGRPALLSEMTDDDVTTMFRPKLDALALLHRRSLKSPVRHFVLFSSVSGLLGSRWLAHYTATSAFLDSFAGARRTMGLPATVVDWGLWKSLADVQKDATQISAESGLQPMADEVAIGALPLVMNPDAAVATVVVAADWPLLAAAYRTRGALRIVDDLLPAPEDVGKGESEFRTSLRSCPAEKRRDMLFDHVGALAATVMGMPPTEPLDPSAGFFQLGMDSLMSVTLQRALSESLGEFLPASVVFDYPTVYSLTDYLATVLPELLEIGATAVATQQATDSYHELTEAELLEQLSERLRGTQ

In turn, `C/C(=N\NC(=N)N)c1cc(NC(=O)CCCCCCCCC(=O)Nc2cc(/C(C)=N/NC(=N)N)cc(/C(C)=N/NC(=N)N)c2)cc(/C(C)=N/NC(=N)N)c1` [semapimod] showed a Kd of 110 nM. This lies in the sub-micromolar range.
